Our source for the MIC values is patent US20210246115A1 (Bioimics AB, priority 2017, published 2021).

Structures are written as SMILES. In brackets after ≈: the same amount, converted by molar mass. Counter-ions that a name gives are not always drawn. Like-named read-outs stand apart in the source and are kept apart here.

Experiment [1] has as its system Staphylococcus aureus subsp. aureus (ATCC29213). Put plainly: MIC, broth microdilution (CLSI), Staphylococcus aureus ATCC29213. The following applies: Staphylococcus aureus. It is filed as cell-based. (In general: In broth dilution the organism is exposed to a series of concentrations in liquid medium.)
The subject of experiment [2] is Escherichia coli (ATCC25922). Description: MIC, broth microdilution (CLSI), Escherichia coli. The following applies: Escherichia coli, ATCC25922, read-out: E. coli ATCC 25922 MIC, Table XIII.
Method: Initial minimal inhibitory concentration (MIC) tests were made on two bacterial strains: • Escherichia coli (ATCC25922) • Staphylococcus aureus (ATCC25923).
MIC values were determined using the standard broth microdilution procedure based on the guidelines by the Clinical and Laboratory Standards Institute (CLSI). Briefly, the compounds were dissolved in DMSO to 10 mM. They were diluted in cation-adjusted Mueller-Hinton broth (CAMHB) to four times the highest concentration tested. A serial two-fold dilution in CAMHB was done in microdilution plates. The inoculum of bacterial strain to be tested was prepared by making a suspension of colonies from an 18 to 24 hours old plate in CAMHB. The inoculum was diluted so that, after inoculation, each well contained approximately 5×10^5 CFU/mL. To a volume of 50 μl compound in CA 3 an equal volume of inoculum was added. The tray was sealed in a plastic bag and incubated at 35° C. for 16 to 20 hours. To aid in the detection of growth the dye resazurin was added to a final concentration 0.001% and incubated at room temperature for 1 h. Reduction of resazurin, and therefore bacterial growth, was seen as a change from blue to pink.
Setting [3] is: ATCC29213, Table XIII, read-out: S. aureus ATCC 29213 MIC.
Where [4] appears, read: ATCC29213, read-out: S. aureus ATCC 29213 MIC, Table XIII.

What is called MIC is the lowest concentration that inhibits growth of the organism. In the case of `Cc1cccc(C(CCOC2OC(CO)C(O)C(O)C2O)c2cn(C3CCCCC3)c3ccccc23)c1` (stereo not drawn) [Compound 388, 2-(3-(1-cyclohexyl-1H-indol-3-yl)-3-(m-tolyl)propoxy)-6-(hydroxymethyl) tetrahydro-2H-pyran-3,4,5-triol], the values for the MIC in experiment [1] (setting [3]) and in experiment [2] were 16 µg/mL (≈ 31.4 µM) and greater than 128 µg/mL, respectively.
Consider `Cc1cccc(C(CCNC2CCNCC2)c2cn(CC3CCNCC3)c3ccc(C#N)cc23)c1` (stereo not drawn) [Compound 326, 3-(3-(piperidin-4-ylamino)-1-(m-tolyl)propyl)-1-(piperidin-4-ylmethyl)-1H-indole-5-carbonitrile hydrochloride salt], for which the MIC in experiment [1] (setting [4]) was determined as 32 µg/mL; in experiment [2], 128 µg/mL.
In the case of `Cl.Cl.N[C@H]1CC[C@H](NCCC(c2ccncc2)c2cn(C3CCCCC3)c3ccccc23)CC1` (stereo partly drawn) [Compound 340, (1r,4r)-N1-(3-(1-cyclohexyl-1H-indol-3-yl)-3-(pyridin-4-yl)propyl) cyclohexane-1,4-diamine hydrochloride salt], the MIC in experiment [1] (setting [3]) came out at 64 µg/mL; in experiment [2], 128 µg/mL.
On to `Cc1cccc(C(CCNCCCN)c2cn(CC3CCOCC3)c3ccc(C#N)cc23)c1` (stereo not drawn) [Compound 318, 3-(3-((3-aminopropyl)amino)-1-(m-tolyl)propyl)-1-((tetrahydro-2H-pyran-4-yl)methyl)-1H-indole-5-carbonitrile hydrochloride salt], for which the figures for the MIC in experiment [1] (setting [4]) and in experiment [2] were 64 µg/mL and greater than 128 µg/mL, respectively.
For `NC1CCC(NCCC(c2cccnc2)c2cn(C3CC4CCC3C4)c3ccccc23)CC1` (stereo not drawn) [Compound 324, N1-(3-(1-(bicyclo[2.2.1]heptan-2-yl)-1H-indol-3-yl)-3-(pyridin-3-yl)propyl)cyclohexane-1,4-diamine hydrochloride salt], the MIC was found to be 32 µg/mL in experiment [1] (setting [4]) and 64 µg/mL in experiment [2].
On to `Cc1ccccc1C(CCNCCCN)c1cn(C2CCCC2)c2ccccc12.Cl.Cl` (stereo not drawn) [Compound 342, N1-(3-(1-cyclopentyl-1H-indol-3-yl)-3-(o-tolyl)propyl)propane-1,3-diamine hydrochloride salt], for which the minimum inhibitory concentration (MIC) in experiment [1] (setting [3]) came out at 16 µg/mL; in experiment [2], 8 µg/mL.
For `Cc1cccc(C(CCNCCN)c2cn(C3CCCCC3)c3ccccc23)c1.Cl.Cl` (stereo not drawn) [Compound 347, N1-(3-(1-cyclohexyl-1H-indol-3-yl)-3-(m-tolyl)propyl)ethane-1,2-diamine hydrochloride salt], in that order: 8 µg/mL and 16 µg/mL.
With `c1cncc(C(CCNC2CCNCC2)c2cn(C3CC4CCC3C4)c3ccccc23)c1` (stereo not drawn) [Compound 325, hydrochloride salt], the minimum inhibitory concentration (MIC) in experiment [1] (setting [4]) and in experiment [2] was 64 µg/mL throughout.
On to `Cc1cccc(C(CCNCC(O)CN)c2cn(C3CCCCC3)c3ccccc23)c1` (stereo not drawn) [Compound 386, 1-amino-3-((3-(1-cyclohexyl-1H-indol-3-yl)-3-(m-tolyl)propyl)amino) propan-2-ol], for which the MIC in experiment [1] (setting [3]) amounted to 16 µg/mL (≈ 38.1 µM); in experiment [2], 8 µg/mL (≈ 19.1 µM).
For `Cc1cccc(C(CCNCCCO)c2cn(C3CCCCC3)c3ccccc23)c1` (stereo not drawn) [Compound 366, 3-((3-(1-cyclohexyl-1H-indol-3-yl)-3-(m-tolyl)propyl)amino) propan-1-ol] the same measures were 16 µg/mL (≈ 39.5 µM) and greater than 128 µg/mL.
On to `Cc1cccc(C(CCNCCCN)c2cn(CC3CCNCC3)c3ccccc23)c1` (stereo not drawn) [Compound 314, N1-(3-(1-(piperidin-4-ylmethyl)-1H-indol-3-yl)-3-(m-tolyl)propyl)propane-1,3-diamine hydrochloride salt], for which the MIC in experiment [1] (setting [4]) is 16 µg/mL; in experiment [2] it was greater than 128 µg/mL.
Turning to `Cl.Cl.NC1CCC(NCCC(c2cccnc2)c2cn(C3CCCCC3)c3ccccc23)CC1` (stereo not drawn) [Compound 330, N1-(3-(1-cyclohexyl-1H-indol-3-yl)-3-(pyridin-3-yl)propyl)cyclohexane-1,4-diamine hydrochloride salt], the MIC was 64 µg/mL in experiment [1] (setting [3]) and greater than 128 µg/mL in experiment [2].
For `Cl.Cl.NCCCNCCC(c1cccnc1)c1cn(C2CCCCC2)c2ccccc12` (stereo not drawn) [Compound 331, N1-(3-(1-cyclohexyl-1H-indol-3-yl)-3-(pyridin-3-yl)propyl)propane-1,3-diamine hydrochloride salt], in that order: 32 µg/mL and 128 µg/mL.
For `Cl.Cl.c1ccc2c(c1)c(C(CCNC1CCNCC1)c1ccncc1)cn2C1CCCCC1` (stereo not drawn) [Compound 335, N-(3-(1-cyclohexyl-1H-indol-3-yl)-3-(pyridin-4-yl)propyl)piperidin-4-amine hydrochloride salt], in that order: 64 µg/mL and 64 µg/mL.
Take `Cc1cccc(CC(CCNCCCN)c2cn(C3CCCCC3)c3ccccc23)c1.Cl.Cl` (stereo not drawn) [Compound 419, N1-(3-(1-cyclohexyl-1H-indol-3-yl)-4-(m-tolyl)butyl)propane-1,3-diamine hydrochloride salt]: the MIC in experiment [1] (setting [3]) and in experiment [2] was 8 µg/mL each time.
`Cl.Cl.NCCCNCCC(c1ccncc1)c1cn(C2CCCCC2)c2ccccc12` (stereo not drawn) [Compound 339, N1-(3-(1-cyclohexyl-1H-indol-3-yl)-3-(pyridin-4-yl)propyl)propane-1,3-diamine hydrochloride salt]: the MIC in experiment [1] (setting [3]) turned out to be 32 µg/mL; in experiment [2] it was 128 µg/mL.
For `Cl.Cl.NCCCNCCC(c1cncc2ccccc12)c1cn(C2CCCCC2)c2ccccc12` (stereo not drawn) [Compound 369, N1-(3-(1-cyclohexyl-1H-indol-3-yl)-3-(isoquinolin-4-yl)propyl)propane-1,3-diamine hydrochloride], in that order: 8 µg/mL and 8 µg/mL.
For `Cc1cccc(C(CCN)c2cn(C3CCCCC3)c3ccccc23)c1.Cl` (stereo not drawn) [Compound 352, 3-(1-cyclohexyl-1H-indol-3-yl)-3-(m-tolyl)propan-1-amine hydrochloride salt], in that order: 8 µg/mL and greater than 128 µg/mL.
Turning to `COc1cccc(C(CCNC2CCNCC2)c2cn(C3CCCCC3)c3ccc(C#N)cc23)c1` (stereo not drawn) [Compound 401, 1-cyclohexyl-3-(1-(3-methoxyphenyl)-3-(piperidin-4-ylamino)propyl)-1H-indole-5-carbonitrile hydrochloride salt], the minimal inhibitory concentration (MIC) in experiment [1] (setting [4]) and in experiment [2] was 16 µg/mL in each case.
For `Cl.Cl.N#Cc1ccc2c(c1)c(C(CCNC1CCNCC1)C1CCCCC1)cn2C1CCCCC1` (stereo not drawn) [Compound 406, 1-cyclohexyl-3-(1-cyclohexyl-3-(piperidin-4-ylamino)propyl)-1H-indole-5-carbonitrile salt], the MIC in experiment [1] (setting [3]) and in experiment [2] was 8 µg/mL throughout.
With `Cl.Cl.NCCCNCCC(c1cn(C2CCCCC2)c2ccccc12)C1CC1` (stereo not drawn) [Compound 422, N1-(3-(1-cyclohexyl-1H-indol-3-yl)-3-cyclopropylpropyl) propane-1,3-diamine hydrochloride salt], the MIC was 32 µg/mL in experiment [1] (setting [3]) and 16 µg/mL in experiment [2].
For `Cl.Cl.c1cncc(C(CCNC2CCNCC2)c2cn(C3CCCCC3)c3ccccc23)c1` (stereo not drawn) [Compound 329, N-(3-(1-cyclohexyl-1H-indol-3-yl)-3-(pyridin-3-yl)propyl)piperidin-4-amine hydrochloride salt], in that order: 32 µg/mL and 64 µg/mL.
For `Cc1cccc(C(CCNCCCN2CCCC2)c2cn(C3CCCCC3)c3ccccc23)c1` (stereo not drawn) [Compound 367, 3-(1-cyclohexyl-1H-indol-3-yl)-N-(3-(pyrrolidin-1-yl)propyl)-3-(m-tolyl)propan-1-amine] the same measures were 64 µg/mL (≈ 140 µM) and greater than 128 µg/mL.
In the case of `c1ccc2c(c1)c(CNCC1CCNCC1)cn2CC1CCCCC1` [Compound 300, 1-(1-(cyclohexylmethyl)-1H-indol-3-yl)-N-(piperidin-4-ylmethyl)methanamine hydrochloride salt], the MIC in experiment [1] (setting [4]) and in experiment [2] was 128 µg/mL each time.
Turning to `Cc1cccc(C(CCNC2CCC(N)CC2)c2cn(CC3CCOCC3)c3ccc(CN)cc23)c1` (stereo not drawn) [Compound 311, N1-(3-(5-(aminomethyl)-1-((tetrahydro-2H-pyran-4-yl)methyl)-1H-indol-3-yl)-3-(m-tolyl)propyl) cyclohexane-1,4-diamine hydrochloride salt], the MIC in experiment [1] (setting [4]) was 128 µg/mL; in experiment [2], greater than 128 µg/mL.
Turning to `Cl.Cl.c1cncc(C(CCNC2CCNCC2)c2cn(CC3CCCCC3)c3ccccc23)c1` (stereo not drawn) [Compound 320, N-(3-(1-(cyclohexylmethyl)-1H-indol-3-yl)-3-(pyridin-3-yl)propyl) piperidin-4-amine hydrochloride salt], the minimum inhibitory concentration (MIC) in experiment [1] (setting [3]) and in experiment [2] was 128 µg/mL in each case.
For `O=C(O)c1ccc2c(c1)c(CNCC1CCNCC1)cn2CC1CCCCC1` [Compound 305, 1-(cyclohexylmethyl)-3-(((piperidin-4-ylmethyl)amino)methyl)-1H-indole-5-carboxylic acid hydrochloride salt], the MIC in experiment [1] (setting [4]) and in experiment [2] was greater than 128 µg/mL throughout.
Regarding `Cc1cccc(C(CCNC2CCC(N)CC2)c2cn(CC3CCNCC3)c3ccccc23)c1` (stereo not drawn) [Compound 313, N1-(3-(1-(piperidin-4-ylmethyl)-1H-indol-3-yl)-3-(m-tolyl)propyl)cyclohexane-1,4-diamine hydrochloride salt], the results for the MIC in experiment [1] (setting [4]) and in experiment [2] were 16 µg/mL and greater than 128 µg/mL, respectively.
Take `Cc1cccc(C(CCNCCCN)c2cn(CC3CCNCC3)c3ccc(C#N)cc23)c1` (stereo not drawn) [Compound 327, 3-(3-((3-aminopropyl)amino)-1-(m-tolyl)propyl)-1-(piperidin-4-ylmethyl)-1H-indole-5-carbonitrile hydrochloride salt]: the MIC is 32 µg/mL in experiment [1] (setting [4]) and greater than 128 µg/mL in experiment [2].
For `Cc1cccc(C(CCNC2CCNCC2)c2cn(CC3CCOCC3)c3ccc(C#N)cc23)c1` (stereo not drawn) [Compound 316, 3-(3-(piperidin-4-ylamino)-1-(m-tolyl)propyl)-1-((tetrahydro-2H-pyran-4-yl)methyl)-1H-indole-5-carbonitrile hydrochloride salt] the same measures were 64 µg/mL and 64 µg/mL.
